pIC50: −log10 of the molar value. Like-named read-outs stand apart in the source and are kept apart here.
Assays:
EGFR = EGFR (Homo sapiens (Human), UniProt P00533); test: ErbB enzyme assay (CisBio HTRF KinEASE-TK), Assay 3; assay type: biochemical
Description: (§1) Compound potencies were determined using CisBio's HTRF Kinease-TK assay technology. The kinases were incubated with 250 nM TK-substrate biotin (CisBio, part of cat #62TK0PEC) at 1 mM ATP along with test compounds in a buffer consisting of 25 mM HEPES, pH 7.4, 10 mM MgCl2, 0.01% Triton X-100, and 2% DMSO in a volume of 8 μL. Compounds were prepared as a three-fold serial dilution in DMSO and added to the assay to give the appropriate final concentration. After 30-minute incubation at 22° C., the reaction was quenched by adding 8 μL of quench solution containing 62.5 nM Sa-XL665 and 0.25× TK-Ab-Cryptate in HTRF detection buffer (all from CisBio, part of cat #62TK0PEC). After a 1-hour incubation at 22° C., the extent of reaction was determined using a PerkinElmer EnVision multimode plate reader via HTRF dual wavelength detection, and the percent of control (POC) was calculated using a ratiometric emission factor. One hundred POC was determined using DMSO only samples (no compound present), and 0 POC was determined using pre-quenched control reactions. A 4-parameter logistic curve was fit to the POC values as a function of the concentration of compound, and the IC50 value was the point where the best-fit curve crossed 50 POC.
(§2) Enzyme lots and concentration used are in Table 2.

[1] = molecular target: ErbB2 with Exon 20 YVMA insertion (HER2-YVMA) (Homo sapiens (Human), UniProt P04626, INS775YVMA); test: Cellular phosphorylation assay, constitutive ErbB2 phosphorylation (Y1196) in engineered NIH 3T3 cells, Assay 4; assay type: cell-based
Sequence of ErbB2 with Exon 20 YVMA insertion (HER2-YVMA) (P04626 other isoform, or with tags, fused parts or gaps ins YVMA behind 775): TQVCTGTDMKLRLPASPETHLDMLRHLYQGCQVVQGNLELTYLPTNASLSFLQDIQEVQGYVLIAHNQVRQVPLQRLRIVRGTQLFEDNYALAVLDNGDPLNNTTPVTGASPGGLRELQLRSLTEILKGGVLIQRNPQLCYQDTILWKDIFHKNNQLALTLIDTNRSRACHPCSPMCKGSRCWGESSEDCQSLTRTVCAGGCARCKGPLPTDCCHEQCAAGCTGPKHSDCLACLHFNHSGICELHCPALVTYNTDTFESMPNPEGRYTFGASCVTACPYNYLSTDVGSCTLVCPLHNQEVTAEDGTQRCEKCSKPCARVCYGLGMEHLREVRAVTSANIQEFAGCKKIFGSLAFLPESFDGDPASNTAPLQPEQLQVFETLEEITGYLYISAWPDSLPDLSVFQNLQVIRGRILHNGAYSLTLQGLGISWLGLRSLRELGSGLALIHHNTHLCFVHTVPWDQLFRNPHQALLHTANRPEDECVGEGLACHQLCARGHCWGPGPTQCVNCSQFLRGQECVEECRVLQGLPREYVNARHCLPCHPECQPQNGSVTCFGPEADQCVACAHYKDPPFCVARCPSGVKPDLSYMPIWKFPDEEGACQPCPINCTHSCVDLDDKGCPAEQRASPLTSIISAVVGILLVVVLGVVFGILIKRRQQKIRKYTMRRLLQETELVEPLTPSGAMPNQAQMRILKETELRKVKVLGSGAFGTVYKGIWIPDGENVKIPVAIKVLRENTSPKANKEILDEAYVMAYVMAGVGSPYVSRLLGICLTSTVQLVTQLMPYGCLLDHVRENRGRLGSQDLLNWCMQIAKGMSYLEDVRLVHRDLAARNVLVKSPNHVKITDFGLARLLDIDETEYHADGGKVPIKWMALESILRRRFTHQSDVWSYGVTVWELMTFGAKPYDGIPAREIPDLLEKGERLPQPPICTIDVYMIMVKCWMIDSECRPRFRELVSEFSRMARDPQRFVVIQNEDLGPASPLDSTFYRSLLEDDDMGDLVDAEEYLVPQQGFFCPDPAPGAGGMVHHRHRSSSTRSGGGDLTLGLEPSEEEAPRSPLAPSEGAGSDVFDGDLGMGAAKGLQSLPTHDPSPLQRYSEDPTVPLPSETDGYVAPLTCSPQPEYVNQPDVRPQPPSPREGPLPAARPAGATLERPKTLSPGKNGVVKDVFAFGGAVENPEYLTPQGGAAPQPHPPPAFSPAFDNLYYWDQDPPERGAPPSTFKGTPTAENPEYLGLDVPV
Description: Serially diluted compounds were added to the plates for 1 hour at 37° C./5% CO2. EGFR WT cells were stimulated with 100 ng/ml rEGF for an additional 10 minutes at 37° C./5% CO2. After compound incubation, medium was removed from the cells, which were then fixed in 3.7% formaldehyde in PBS at room temperature for 20 minutes. Following a wash with PBS, cells were permeabilized with 100% methanol at room temperature for 10 minutes. Cells were then washed with PBS/0.05% Tween-20 and blocked with Odyssey blocking buffer (LI-COR Biosciences) for at least 1 hour at room temperature. Antibodies to phosphorylated ErbB2 (Y1196, Cell Signaling #6942) or phosphorylated EGFR (Y1068, Cell Signaling #3777) and GAPDH (Millipore #MAB374) were added to the cells in blocking buffer containing 0.05% azide and incubated overnight at 4° C. After washing with PBS/0.05° i° Tween-20, the cells were incubated with fluorescently labeled secondary anti-rabbit antibody (LiCOR, IRDye 800CW #926-32211) and anti-mouse antibody (Molecular Probes, Alexa Fluor 680 #A21058) for 1 hour at room temperature in the dark. Cells were then washed and analyzed for fluorescence at both wavelengths using the Odyssey Infrared Imaging System (LI-COR Biosciences). Phosphorylated ErbB2 and EGFR signal was normalized to GAPDH signal to generate curves and calculate IC50 values.

[2] = molecular target: ErbB2 insYVMA (HER2-YVMA, SEQ ID NO: 2) (Homo sapiens, UniProt P04626, INS775YVMA/P1170A); test: biochemical; conditions: ErbB2 insYVMA enzyme assay; for pIC50: read-out: Assay 1 IC50; for IC50: Assay 1 IC50 (nM)
Sequence of ErbB2 insYVMA (HER2-YVMA, SEQ ID NO: 2) (P04626 with tags, fused parts or gaps INS775YVMA/P1170A limits assumed): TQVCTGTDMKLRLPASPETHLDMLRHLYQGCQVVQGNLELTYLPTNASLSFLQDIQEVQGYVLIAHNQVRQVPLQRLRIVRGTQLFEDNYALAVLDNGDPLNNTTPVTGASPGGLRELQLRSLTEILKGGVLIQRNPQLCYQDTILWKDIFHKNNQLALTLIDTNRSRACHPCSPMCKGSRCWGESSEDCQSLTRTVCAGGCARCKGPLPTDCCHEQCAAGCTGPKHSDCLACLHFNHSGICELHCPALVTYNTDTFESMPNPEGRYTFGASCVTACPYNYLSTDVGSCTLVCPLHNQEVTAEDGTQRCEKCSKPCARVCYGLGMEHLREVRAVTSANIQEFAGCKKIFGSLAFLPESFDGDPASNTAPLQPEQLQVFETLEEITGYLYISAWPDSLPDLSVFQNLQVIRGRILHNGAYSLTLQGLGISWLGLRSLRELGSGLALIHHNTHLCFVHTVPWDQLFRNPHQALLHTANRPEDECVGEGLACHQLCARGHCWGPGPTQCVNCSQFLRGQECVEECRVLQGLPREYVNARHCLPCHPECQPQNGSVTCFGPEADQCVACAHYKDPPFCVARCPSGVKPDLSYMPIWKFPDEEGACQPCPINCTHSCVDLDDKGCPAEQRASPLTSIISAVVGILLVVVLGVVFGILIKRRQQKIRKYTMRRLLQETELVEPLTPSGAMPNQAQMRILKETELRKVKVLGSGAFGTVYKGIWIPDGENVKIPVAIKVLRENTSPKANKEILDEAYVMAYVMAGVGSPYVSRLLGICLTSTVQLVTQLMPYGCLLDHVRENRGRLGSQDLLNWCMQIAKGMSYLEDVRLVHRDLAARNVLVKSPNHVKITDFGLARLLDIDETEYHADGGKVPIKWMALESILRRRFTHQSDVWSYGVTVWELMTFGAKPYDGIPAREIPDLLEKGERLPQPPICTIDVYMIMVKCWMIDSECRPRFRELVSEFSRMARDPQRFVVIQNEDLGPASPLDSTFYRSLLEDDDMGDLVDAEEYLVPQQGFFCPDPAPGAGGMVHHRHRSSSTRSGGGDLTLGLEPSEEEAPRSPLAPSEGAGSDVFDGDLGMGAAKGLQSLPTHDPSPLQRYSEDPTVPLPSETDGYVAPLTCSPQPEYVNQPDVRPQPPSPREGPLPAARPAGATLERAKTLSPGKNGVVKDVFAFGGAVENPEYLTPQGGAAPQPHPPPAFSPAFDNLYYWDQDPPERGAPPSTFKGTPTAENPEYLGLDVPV

ErbB2 WT = ErbB2 WT (Homo sapiens (Human), UniProt P04626); test: ErbB enzyme assay (CisBio HTRF KinEASE-TK), Assay 2; assay type: biochemical
Sequence of ErbB2 WT (P04626 23-1255): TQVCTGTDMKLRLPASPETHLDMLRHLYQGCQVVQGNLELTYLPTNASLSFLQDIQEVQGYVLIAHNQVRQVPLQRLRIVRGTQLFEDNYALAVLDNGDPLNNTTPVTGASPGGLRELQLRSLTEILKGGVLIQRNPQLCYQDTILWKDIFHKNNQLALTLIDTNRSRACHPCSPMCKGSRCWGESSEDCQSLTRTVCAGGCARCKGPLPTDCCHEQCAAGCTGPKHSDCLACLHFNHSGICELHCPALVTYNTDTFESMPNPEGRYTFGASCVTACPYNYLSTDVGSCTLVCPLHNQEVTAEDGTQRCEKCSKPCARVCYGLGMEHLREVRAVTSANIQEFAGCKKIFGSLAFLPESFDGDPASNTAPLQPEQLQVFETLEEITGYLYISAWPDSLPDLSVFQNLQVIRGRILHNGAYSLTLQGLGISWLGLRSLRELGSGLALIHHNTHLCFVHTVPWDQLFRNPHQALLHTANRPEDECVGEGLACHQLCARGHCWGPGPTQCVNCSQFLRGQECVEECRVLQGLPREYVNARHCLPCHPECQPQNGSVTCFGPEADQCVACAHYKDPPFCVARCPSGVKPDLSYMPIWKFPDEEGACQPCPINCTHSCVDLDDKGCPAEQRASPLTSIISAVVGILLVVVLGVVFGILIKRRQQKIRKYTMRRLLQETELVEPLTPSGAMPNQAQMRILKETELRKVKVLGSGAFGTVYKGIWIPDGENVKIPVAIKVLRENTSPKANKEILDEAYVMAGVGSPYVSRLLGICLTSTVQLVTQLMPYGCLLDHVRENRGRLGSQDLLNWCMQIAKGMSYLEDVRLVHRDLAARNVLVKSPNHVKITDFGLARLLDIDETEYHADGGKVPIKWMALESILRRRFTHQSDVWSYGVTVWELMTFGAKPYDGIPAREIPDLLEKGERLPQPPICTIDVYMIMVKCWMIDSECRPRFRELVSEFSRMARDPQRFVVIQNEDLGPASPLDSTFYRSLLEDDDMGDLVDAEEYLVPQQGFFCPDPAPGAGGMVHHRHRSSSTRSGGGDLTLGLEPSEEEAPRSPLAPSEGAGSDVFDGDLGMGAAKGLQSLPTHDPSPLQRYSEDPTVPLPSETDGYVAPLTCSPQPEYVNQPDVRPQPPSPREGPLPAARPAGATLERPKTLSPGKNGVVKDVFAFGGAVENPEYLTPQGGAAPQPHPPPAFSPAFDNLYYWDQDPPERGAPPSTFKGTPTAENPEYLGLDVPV
Description: as §1, with “Compounds were prepared as a three-fold serial dilution in DMSO and added to the assay to give the appropriate final concentration.” left out, “reactions.” for “reactions. A 4-parameter logistic curve was fit to the POC values as a function of the concentration of compound, and the IC50 value was the point where the best-fit curve crossed 50 POC.”
as §2

Sequence of EGFR (P00533 25-1210): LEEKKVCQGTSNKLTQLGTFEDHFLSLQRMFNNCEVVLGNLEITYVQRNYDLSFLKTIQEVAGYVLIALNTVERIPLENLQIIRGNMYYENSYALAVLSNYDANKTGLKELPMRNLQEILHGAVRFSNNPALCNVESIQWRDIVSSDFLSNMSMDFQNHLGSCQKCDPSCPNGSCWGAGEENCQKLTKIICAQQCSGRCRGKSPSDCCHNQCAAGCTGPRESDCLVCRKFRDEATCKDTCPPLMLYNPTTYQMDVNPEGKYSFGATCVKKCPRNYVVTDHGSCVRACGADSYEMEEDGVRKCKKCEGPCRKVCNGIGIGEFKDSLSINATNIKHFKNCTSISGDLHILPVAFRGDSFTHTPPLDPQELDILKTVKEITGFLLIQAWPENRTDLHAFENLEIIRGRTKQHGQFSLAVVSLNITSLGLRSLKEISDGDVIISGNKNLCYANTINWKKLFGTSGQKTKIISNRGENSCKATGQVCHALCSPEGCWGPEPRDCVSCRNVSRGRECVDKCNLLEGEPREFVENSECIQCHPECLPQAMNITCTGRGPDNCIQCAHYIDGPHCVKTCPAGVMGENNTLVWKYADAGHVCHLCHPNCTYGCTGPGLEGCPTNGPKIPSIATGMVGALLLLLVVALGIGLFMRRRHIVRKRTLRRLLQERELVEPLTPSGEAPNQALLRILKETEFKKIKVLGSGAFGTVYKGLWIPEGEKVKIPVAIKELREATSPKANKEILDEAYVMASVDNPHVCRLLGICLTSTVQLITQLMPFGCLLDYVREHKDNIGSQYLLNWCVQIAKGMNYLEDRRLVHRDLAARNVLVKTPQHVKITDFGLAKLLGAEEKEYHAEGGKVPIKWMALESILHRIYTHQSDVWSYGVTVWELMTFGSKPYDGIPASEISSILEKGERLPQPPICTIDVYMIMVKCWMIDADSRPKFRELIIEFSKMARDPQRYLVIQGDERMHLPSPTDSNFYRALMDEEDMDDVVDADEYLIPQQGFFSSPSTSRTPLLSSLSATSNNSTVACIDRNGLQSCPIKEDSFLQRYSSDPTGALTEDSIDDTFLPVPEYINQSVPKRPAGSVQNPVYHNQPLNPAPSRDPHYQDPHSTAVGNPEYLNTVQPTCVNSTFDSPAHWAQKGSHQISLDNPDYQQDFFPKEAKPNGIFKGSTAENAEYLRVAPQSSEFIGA

Row | Structure (SMILES) | pIC50 (EGFR) | pIC50 [1] | pIC50 [2] | pIC50 (ErbB2 WT) | IC50 [2]
1 | Cc1cc(Nc2ncnc3cnc(NC4CCC4(F)F)nc23)ccc1Oc1ccc2c(c1)ncn2C (stereo not drawn) [Example 52, N2-(2,2-difluorocyclobutyl)-N8-(3-methyl-4-((1-methyl-1H-benzo[d]imidazol-5-yl)oxy)phenyl)pyrimido[5,4-d]pyrimidine-2,8-diamine] | ≤ 5.00 | 6.80 | 7.00 | 6.50 | –
2 | Cc1cc(Nc2ncnc3cnc(N4CC[C@H](C)C4=O)nc23)ccc1Oc1ccc2c(c1)ncn2C [Example 250] | ≤ 5.00 | 7.26 | 7.33 | 7.17 | –
3 | Cc1cc(Nc2ncnc3cnc(N[C@@H](C)COC(F)(F)F)nc23)ccc1Oc1ccc2c(c1)ncn2C [Example 63, (S)—N8-(3-methyl-4-((1-methyl-1H-benzo[d]imidazol-5-yl)oxy)phenyl)-N2-(1-(trifluoromethoxy)propan-2-yl)pyrimido[5,4-d]pyrimidine-2,8-diamine] | ≤ 5.00 | 6.72 | 6.71 | 6.06 | –
4 | Cc1cc(Nc2ncnc3cnc(O[C@@H]4CNC[C@@H]4F)nc23)ccc1Oc1ccc2c(c1)ncn2C [Example 86, 6-(((3R,4S)-4-fluoropyrrolidin-3-yl)oxy)-N-(3-methyl-4-((1-methyl-1H-benzo[d]imidazol-5-yl)oxy)phenyl)pyrimido[5,4-d]pyrimidin-4-amine] | ≤ 5.00 | 6.58 | – | 6.52 | –
5 | Cc1cc(Nc2ncnc3cnc(N(C)C4CCCOC4)nc23)ccc1Oc1ccc2c(c1)ncn2C (stereo not drawn) [Example 473] | – | – | 7.67 | 7.70 | –
6 | Cc1cc(Nc2ncnc3cnc(N4CCC[C@@H]4C(F)F)nc23)ccc1Oc1ccc2c(c1)ncn2C [Example 56, (R)-6-(2-(difluoromethyl)pyrrolidin-1-yl)-N-(3-methyl-4-((1-methyl-1H-benzo[d]imidazol-5-yl)oxy)phenyl)pyrimido[5,4-d]pyrimidin-4-amine] | ≤ 5.00 | 6.98 | 6.69 | 6.39 | –
7 | Cc1cc(Nc2ncnc3cnc(N4CCC[C@@H]4C(F)(F)F)nc23)ccc1Oc1ccc2c(c1)ncn2C [Example 229] | ≤ 5.00 | 6.78 | 6.77 | 6.43 | –
8 | Cc1cc(Nc2ncnc3cnc(N4CC[Si](C)(C)CC4)nc23)ccc1Oc1ccc2c(c1)ncn2C [Example 474] | ≤ 5.00 | 6.25 | – | 6.14 | 254 nM
9 | Cc1cc(Nc2ncnc3cnc(N4CCN(C)[C@H](C)C4)nc23)ccc1Oc1ccc2c(c1)ncn2C [Example 490] | ≤ 5.00 | – | – | – | –
10 | Cc1cc(Nc2ncnc3cnc(N4CC5CC5(C)C4)nc23)ccc1Oc1ccc2c(c1)ncn2C (stereo not drawn) [Example 225] | ≤ 5.00 | 7.07 | 6.83 | 6.66 | –
11 | Cc1cc(Nc2ncnc3cnc(N4CC5CC(C5)C4)nc23)ccc1Oc1ccc2c(c1)ncn2C [Example 39, 6-(3-azabicyclo[3.1.1]heptan-3-yl)-N-(3-methyl-4-((1-methyl-1H-benzo[d]imidazol-5-yl)oxy)phenyl)pyrimido[5,4-d]pyrimidin-4-amine] | ≤ 5.00 | 6.53 | 6.70 | 6.45 | –
12 | Cc1cc(Nc2ncnc3cnc(N4CC5(CCOC5)C4)nc23)ccc1Oc1ccc2c(c1)ncn2C [Example 21, N-(3-methyl-4-((1-methyl-1H-benzo[d]imidazol-5-yl)oxy)phenyl)-6-(6-oxa-2-azaspiro[3.4]octan-2-yl)pyrimido[5,4-d]pyrimidin-4-amine] | 6.00 | 7.08 | 7.47 | 7.01 | –
13 | Cc1cc(Nc2ncnc3cnc(N(C)Cc4ccccc4)nc23)ccc1Oc1ccc2c(c1)ncn2C [Example 331] | ≤ 5.00 | – | 6.39 | 6.41 | –
14 | Cc1cc(Nc2ncnc3cnc(N4CC(C)(O)C4)nc23)ccc1Oc1ccc2c(c1)ncn2C [Example 246] | ≤ 5.00 | 6.99 | 7.55 | 7.15 | –
15 | Cc1cc(Nc2ncnc3cnc(OCC(F)F)nc23)ccc1Oc1ccc2c(c1)ncn2C [Example 177, 6-(2,2-difluoroethoxy)-N-(3-methyl-4-((1-methyl-1H-benzo[d]imidazol-5-yl)oxy)phenyl)pyrimido[5,4-d]pyrimidin-4-amine] | ≤ 5.00 | 6.96 | 7.27 | 6.82 | –
16 | Cc1cc(Nc2ncnc3cnc(N4C5COCC4C5)nc23)ccc1Oc1ccc2c(c1)ncn2C [Example 255] | ≤ 5.00 | 6.80 | 6.95 | 6.36 | –
17 | Cc1cc(Nc2ncnc3cnc(N(C)c4cnn(C)c4)nc23)ccc1Oc1ccc2c(c1)ncn2C [Example 108, N2-methyl-N2-(1-methyl-1H-pyrazol-4-yl)-N8-(3-methyl-4-((1-methyl-1H-benzo[d]imidazol-5-yl)oxy)phenyl)pyrimido[5,4-d]pyrimidine-2,8-diamine] | 5.37 | – | 7.42 | 7.41 | –
18 | CO[C@H]1CCCN(c2ncc3ncnc(Nc4ccc(Oc5ccc6c(c5)ncn6C)c(C)c4)c3n2)C1 [Example 248] | ≤ 5.00 | 7.18 | 7.24 | 6.91 | –
19 | Cc1cc(Nc2ncnc3cnc(N4C[C@H](C)O[C@@H](C)C4)nc23)ccc1Oc1ccc2c(c1)ncn2C [Example 72, 6-((2S,6S)-2,6-dimethylmorpholino)-N-(3-methyl-4-((1-methyl-1H-benzo[d]imidazol-5-yl)oxy)phenyl)pyrimido[5,4-d]pyrimidin-4-amine] | ≤ 5.00 | 7.12 | – | 7.08 | 69.6 nM
20 | Cc1cc(Nc2ncnc3cnc(N4CC(C(F)F)C4)nc23)ccc1Oc1ccc2c(c1)ncn2C [Example 37, 6-(3-(difluoromethyl)azetidin-1-yl)-N-(3-methyl-4-((1-methyl-1H-benzo[d]imidazol-5-yl)oxy)phenyl)pyrimido[5,4-d]pyrimidin-4-amine] | ≤ 5.00 | 6.76 | 7.10 | 6.41 | –
21 | Cc1c(Oc2ccc3c(c2)ncn3C)ccc(Nc2ncnc3cnc(N4CC5CC4CO5)nc23)c1F (stereo not drawn) [Example 454] | 5.39 | 7.26 | 7.82 | 7.32 | –
22 | Cc1cc(Nc2ncnc3cnc(N4CCC(F)(F)CC4)nc23)ccc1Oc1ccc2c(c1)ncn2C [Example 236] | ≤ 5.00 | 7.05 | 6.83 | 6.45 | –
23 | CCn1cnc2cc(Oc3ccc(Nc4ncnc5cnc(N6CCOCC6)nc45)cc3C)ccc21 [Example 75, N-(4-((1-ethyl-1H-benzo[d]imidazol-5-yl)oxy)-3-methylphenyl)-6-morpholinopyrimido[5,4-d]pyrimidin-4-amine 2,2,2-trifluoroacetate] | ≤ 5.00 | 7.62 | – | 6.85 | 51.8 nM
24 | Cc1cc(Nc2ncnc3cnc(N4CC[C@@H]4C(C)(C)O)nc23)ccc1Oc1ccc2c(c1)ncn2C [Example 397] | ≤ 5.00 | 6.94 | 7.69 | 6.84 | –
25 | Cc1c(Oc2ccn3ncnc3c2)ccc(Nc2ncnc3cnc(N4C[C@@H]5CC4CO5)nc23)c1F [Example 313] | – | – | 7.67 | 7.39 | –
